Laboratory results as given in the supplement of paper PMC10307832.

How the values were obtained:
Experiment in all cases: relative viability (nuclei count vs DMSO), 5 days (fraction); higher = more cells survive
[1] = compound: COC1=C(C=C(C=C1)C2=CC3=NC=CN3C(=N2)NC4=C(C=CC=N4)C(=O)N)OC [BAY61-3606] + Cc1nc(Nc2ncc(C(=O)Nc3c(C)cccc3Cl)s2)cc(N2CCN(CCO)CC2)n1 [Dasatinib] (partner 0.075 µM)
In short: (§1)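 Nuclei were stained with Hoechst during a one-step fixation (final 0.05% Triton X-100, 1% formaldehyde, 1 ug/ml Hoechst) carried out 5 days after dosing, then counted on 4× images. The cells, lung cancer lines in 1536-well plates, had been dosed by pin tool the day after seeding with one drug alone or a fixed anchor-drug dose plus five library-drug doses (not always all listed) in √10 steps. Relative viability is the nuclei count in treated wells divided by that in vehicle wells, and each value is the median of duplicate plates.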

[2] = compound: COc1cccc2c1C(=O)c1c(O)c3c(c(O)c1C2=O)C[C@@](O)(C(=O)CO)C[C@@H]3O[C@H]1C[C@H](N)[C@H](O)[C@H](C)O1 [Doxorubicin] + Cc1cc(Nc2cc(N3CCN(C)CC3)nc(Sc3ccc(NC(=O)C4CC4)cc3)n2)n[nH]1 [Tozasertib] (partner 0.1 µM)
In short: as §1

[3] = compound: COc1cccc2c1C(=O)c1c(O)c3c(c(O)c1C2=O)C[C@@](O)(C(=O)CO)C[C@@H]3O[C@H]1C[C@H](N)[C@H](O)[C@H](C)O1 [Doxorubicin] + Nc1nc2[nH]cc(CCc3ccc(C(=O)N[C@@H](CCC(=O)O)C(=O)O)cc3)c2c(=O)[nH]1 [Pemetrexed] (partner 0.2 µM)
In short: as §1

[4] = compound: COc1cccc2c1C(=O)c1c(O)c3c(c(O)c1C2=O)C[C@@](O)(C(=O)CO)C[C@@H]3O[C@H]1C[C@H](N)[C@H](O)[C@H](C)O1 [Doxorubicin] + CC(C)C[C@H](NC(=O)[C@H](Cc1ccccc1)NC(=O)c1cnccn1)B(O)O [Bortezomib] (partner 0.002 µM)
In short: as §1

Row | Cell Line | relative viability ([1]; first compound 0.02 µM) | relative viability ([1]; first compound 0.06325 µM) | relative viability ([1]; first compound 0.2 µM) | relative viability ([1]; first compound 0.6325 µM) | relative viability ([1]; first compound 2 µM) | relative viability ([2]; first compound 0.001 µM) | relative viability ([2]; first compound 0.003162 µM) | relative viability ([2]; first compound 0.01 µM) | relative viability ([2]; first compound 0.03162 µM) | relative viability ([2]; first compound 0.1 µM) | relative viability ([3]; first compound 0.001 µM) | relative viability ([3]; first compound 0.003162 µM) | relative viability ([3]; first compound 0.01 µM) | relative viability ([3]; first compound 0.03162 µM) | relative viability ([3]; first compound 0.1 µM) | relative viability ([4]; first compound 0.001 µM) | relative viability ([4]; first compound 0.003162 µM) | relative viability ([4]; first compound 0.01 µM) | relative viability ([4]; first compound 0.03162 µM) | relative viability ([4]; first compound 0.1 µM)
1 | NCI-H1915 | 0.313 | 0.312 | 0.344 | 0.314 | 0.272 | 0.481 | 0.439 | 0.452 | 0.41 | 0.437 | 0.533 | 0.529 | 0.525 | 0.568 | 0.502 | 0.994 | 0.943 | 0.927 | 0.94 | 1
2 | NCI-H1975 | 0.378 | 0.31 | 0.367 | 0.282 | 0.253 | 0.745 | 0.711 | 0.664 | 0.303 | 0.178 | 0.268 | 0.29 | 0.277 | 0.306 | 0.225 | 0.433 | 0.364 | 0.321 | 0.226 | 0.165
3 | NCI-H1993 | 0.581 | 0.56 | 0.566 | 0.521 | 0.491 | 0.593 | 0.657 | 0.555 | 0.58 | 0.591 | 0.603 | 0.685 | 0.58 | 0.57 | 0.528 | 1.1 | 0.945 | 1.06 | 0.634 | 0.439
4 | NCI-H2009 | 0.318 | 0.288 | 0.281 | 0.233 | 0.142 | 0.748 | 0.745 | 0.678 | 0.524 | 0.284 | 1.04 | 0.987 | 1.01 | 0.788 | 0.617 | 0.914 | 1.1 | 0.912 | 0.572 | 0.266
5 | NCI-H2023 | 0.639 | 0.601 | 0.554 | 0.525 | 0.334 | 0.351 | 0.378 | 0.294 | 0.157 | 0.0799 | 0.247 | 0.218 | 0.212 | 0.128 | 0.0912 | 0.456 | 0.889 | 0.69 | 0.152 | 0.0962
6 | NCI-H2085 | 0.281 | 0.226 | 0.285 | 0.248 | 0.25 | 0.815 | 0.829 | 0.919 | 0.796 | 0.829 | 0.904 | 0.943 | 0.939 | 1.1 | 0.802 | 0.903 | 1.05 | 0.907 | 0.709 | 0.716
7 | NCI-H2087 | 1.01 | 0.858 | 0.906 | 0.79 | 0.635 |  | 0.278 | 0.248 | 0.165 | 0.156 | 0.577 | 0.731 | 0.579 | 0.615 | 0.668 | 0.6 | 0.7 | 0.869 | 0.678 | 0.55
8 | NCI-H2126 | 0.676 | 0.599 | 0.573 | 0.567 | 0.356 | 0.902 | 0.752 | 0.774 | 0.229 | 0.251 | 0.623 | 0.738 | 0.712 | 0.699 | 0.681 | 1.08 | 1.12 | 1.1 | 1.1 | 1.13
